Assay results published in US9555115B2, “Pharmaceutical composition for oral administration with improved dissolution and/or absorption” (Taiho Pharmaceutical Co., Ltd., priority 2012, dated 2017).

Test: Compatibility test: related substances by HPLC after storage of mixed powders
Assay type: physicochemical
Description: 4-((1-methylpyrrol-2-yl)-carbonyl)-N-(4-(4-morpholin-1-yl-carbonylpiperidin-1-yl)-phenyl)-1-piperazinecarboxamide (compound 1) monohydrate and organic acids were respectively weighed in an amount of 0.5 g. Compound 1 monohydrate was mixed with each organic acid in a mortar to produce individual mixed powders. Subsequently, compound 1 monohydrate alone was weighed in an amount of 0.5 g to produce a compound 1 monohydrate powder according to the same method as in the production of the organic acid mixed powders.
Each organic acid mixed powder and each compound 1 monohydrate powder were weighed in amounts of 0.04 g and 0.02 g, respectively, in sealed and open glass bottles. These bottles were allowed to stand at 60° C. and a relative humidity of 60% for two weeks, and then the production of a compound 1 monohydrate related substance was examined by HPLC to evaluate stability. In the evaluation, a high-speed liquid chromatograph (Shimadzu Corporation) was used.
Detector: Ultraviolet spectrophotometer (measurement wavelength: 260 nm)
Column: Phenylated silica gel for liquid chromatography (3.5 μm) (XBridge Phenyl, Japan Waters, Inc.) was placed in a stainless pipe with an inner diameter of 4.6 mm and a length of 10 cm.
Column temperature: Constant temperature of around 40° C.
Mobile phase A: Phosphate buffer solution (pH 7)
Mobile phase B: Acetonitrile
Transfer of mobile phase: The concentration gradient is regulated by changing the mixing ratio of mobile phases A and B as shown in Table 1.

Initial value Related Substances (initial value, before storage): 0.46 mass % | Open Related Substances (open glass bottle, 60° C., relative humidity 60%, two weeks): 0.47 mass % | Sealed Related Substances (sealed glass bottle, 60° C., relative humidity 60%, two weeks): 0.44 mass %
Structure (SMILES): Cn1cccc1C(=O)N1CCN(C(=O)Nc2ccc(N3CCC(C(=O)N4CCOCC4)CC3)cc2)CC1.O [Compound 1 monohydrate, 4-((1-methylpyrrol-2-yl)-carbonyl)-N-(4-(4-morpholin-1-yl-carbonylpiperidin-1-yl)-phenyl)-1-piperazinecarboxamide]
